In patent US11078221B2, “Phosphorodiamidates and other phosphorus derivatives of fingolimod and related S1P receptor modulators” (UNIVERSITY COLLEGE CARDIFF CONSULTANTS LTD, priority 2017, dated 2021):

What was measured:
NPC1 and −2 = conditions: mice, clinically relevant doses, cited from earlier work
[1] = system: human NPC1 mutant fibroblasts; conditions: cited from earlier work
B95a cell lysate = B95a cell lysate experiment (31P NMR); format: in vitro ADME; conditions: pH 7.6, 37 Celsius, FIG. 4
Experimental: (§1) 4 mg of pentyl (2S)-2-[({2-amino-3-hydroxy-2-[2-(4-octylpheny)ethyl]propoxy}(4-methoxyphenoxy)phosphoryl)amino]propanoate are dissolved in a mixture of 150 μL of acetone d6 and 100 μL of trizma buffer (pH=7.6). The solution is transferred into an NMR tube. The ^31P spectrum is recorded (64 scans).
(§2) To the blank sample in the NMR tube 150 μL of B95a cell lysate (6.000.000 cell/m L) are added and then ^31P spectra are recorded at 37 Celsius (512 scans, 600 sec delay, 20 experiments).

[2] = B95a cell lysate experiment (31P NMR); format: in vitro ADME; conditions: marmoset (cotton-top tamarin), B95a cell lysate; pH 7.6, 37 Celsius
Experimental: as §1, §2

Carboxypeptidase Y = biological target: T1, Carboxypeptidase Y (Saccharomyces cerevisiae, UniProt P00729); experiment: Carboxypeptidase Y experiment (31P NMR); format: in vitro ADME
T1 construct: purchased Aldrich
T1 sequence (P00729 112-532): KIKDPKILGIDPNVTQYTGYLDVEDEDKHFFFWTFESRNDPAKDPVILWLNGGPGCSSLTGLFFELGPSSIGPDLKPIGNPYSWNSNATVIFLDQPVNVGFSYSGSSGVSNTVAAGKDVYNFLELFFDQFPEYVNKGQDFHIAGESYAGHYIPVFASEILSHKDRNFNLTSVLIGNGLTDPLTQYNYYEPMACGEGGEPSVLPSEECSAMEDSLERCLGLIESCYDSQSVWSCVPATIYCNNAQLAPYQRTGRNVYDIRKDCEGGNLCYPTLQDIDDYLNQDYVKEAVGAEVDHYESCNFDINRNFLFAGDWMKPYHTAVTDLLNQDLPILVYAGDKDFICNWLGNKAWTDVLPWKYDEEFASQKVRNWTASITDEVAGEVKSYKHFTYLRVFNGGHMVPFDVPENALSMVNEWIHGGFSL
Experimental: Blank in acetone d6 alone (No trizma): 1-2 mg of pentyl (2S)-2-[({2-amino-3-hydroxy-2-[2-(4-octylphenethyl]propoxy}(4-methoxyphenoxy) phosphoryl)amino]propanoate is dissolved in 150 μL of acetone d6 and the solution transferred into an NMR tube. The ^31P spectrum is recorded (16 scans are sufficient).
The sample in the NMR tube is diluted with 100 μL of Trizma buffer (pH=7.6). 0.1 mg of Carboxypeptidase Y (Aldrich) is then dissolved in 150 μL of Trizma buffer and the resulting solution is added to the NMR tube. ^31P NMR spectra are then recorded (512 scans, 600 sec delay, 20 experiments.) FIG. 1

[3] = Human serum stability (31P NMR); format: in vitro ADME

Row | Compound | cholesterol (NPC1 and −2; SphK2-dependent) | expression of NPC1 and −2 (NPC1 and −2; brain and liver) | accumulation of cholesterol and glycosphingolipids [1] | expression of NPC1 and −2 [1] | processing in B95a cell lysate (B95a cell lysate) | half-life at 10 mg/mL [2] [h] | activation of the prodrug by the esterase (Carboxypeptidase Y; acetone d6 / Trizma buffer, Carboxypeptidase Y, FIG. 1) | half-life (Carboxypeptidase Y; yeast (Saccharomyces cerevisiae), Carboxypeptidase Y in Trizma buffer / acetone d6, acetone d6 / Trizma buffer pH 7.6, read-out: half-life in the presence of Carboxypeptidase Y) [h] | stability in human serum ([3]; DMSO d6 / Trizma buffer pH 7.6) | time over which the prodrug is stable in human serum ([3]; FIG. 3)
1 | CCCCCCCCc1ccc(CCC(N)(CO)CO)cc1 [FTY720, Fingolimod] | decreased cholesterol | increased expression of NPC1 and −2 in brain and liver | significantly reduced the accumulation of cholesterol and glycosphingolipids | greatly increased expression of NPC1 and −2 |  |  |  |  |  | 
2 | CCCCCCCCc1ccc(CCC(N)(CO)COP(=O)(N[C@@H](C)C(=O)OCCCCC)Oc2ccc(OC)cc2)cc1 (stereo partly drawn) [pentyl (2S)-2-[({2-amino-3-hydroxy-2-[2-(4-octylphenyl)ethyl]propoxy}(4-methoxyphenoxy)phosphoryl)amino]propanoate] |  |  |  |  | processed to release the active monophosphorylated analogue | 11.1 | rapidly activated by the esterase | 35.1 | stable in human serum | at least 665 minutes
